From ChEMBL document CHEMBL4673232, “Optimization of a series of potent, selective and orally bioavailable SYK inhibitors” (Bioorg Med Chem Lett, 2020)
≈ marks a conversion by molar mass, not a printed value.

Key:
[1] = Metabolic stability in rat hepatocyte assessed as intrinsic clearance; assay type: ADME, tissue-based; settings: hepatocytes
[2] = Metabolic stability in human liver microsomes assessed as intrinsic clearance; assay type: ADME, Microsome; settings: read-out: CLH
[3] = Lipophilicity, logD of compound; assay type: physicochemical; settings: octanol/water
[4] = Volume of distribution at steady state in CD-1 mouse at 0.5 mg/kg, iv or 1 mg/kg, po; assay type: ADME, organism-based; settings: in vivo, read-out: Vdss
[5] = Oral bioavailability in Han Wistar rat at 1 mg/kg; assay type: ADME, organism-based; settings: in vivo
[6] = Solubility of compound; assay type: physicochemical
[7] = Oral bioavailability in CD-1 mouse at 1 mg/kg; assay type: ADME, organism-based; settings: in vivo
[8] = Clearance for unbound fraction in CD-1 mouse at 0.5 mg/kg, iv or 1 mg/kg, po; assay type: ADME, organism-based; settings: in vivo
[9] = Clearance in CD-1 mouse at 0.5 mg/kg, iv or 1 mg/kg, po; assay type: ADME, organism-based; settings: in vivo
[10] = Dissociation constant, pKa of the compound; assay type: physicochemical
[11] = mouse, hepatocytes
[12] = Clearance in Han Wistar rat at 0.5 mg/kg, iv or 1 mg/kg, po; assay type: ADME, organism-based; settings: in vivo
[13] = Unbound clearance in Han Wistar rat at 0.5 mg/kg, iv or 1 mg/kg, po; assay type: ADME, organism-based; settings: in vivo
[14] = Apparent permeability of the compound across apical to basolateral side in human Caco-2 cells at pH 6.5; assay type: ADME, cell-based; settings: Caco-2, pH 6.5
[15] = Metabolic stability in human hepatocyte assessed as intrinsic clearance; assay type: ADME, tissue-based; settings: hepatocytes
[16] = Volume of distribution at steady state in Han Wistar rat at 0.5 mg/kg, iv or 1 mg/kg, po; assay type: ADME, organism-based; settings: in vivo, read-out: Vdss

Row | Compound | CLH [1] [µL/min] | microsomal CLint [2] [µL/min/mg] | logD [3] | further results
1 | Cc1nn(-c2ccnc(Nc3ccc4c(c3)c(Cl)c(C)n4C)n2)cc1CN1CC(O)C1 | 66 | 49 | 3.9 | –
2 | COC(=O)c1nn(C)c2c(C)cc(Nc3nccc(-c4cc(CN(C)C)n(C)n4)n3)cc12 | 186 | – | 3.2 | –
3 | CNC(=O)c1nn(C)c2ccc(Nc3nccc(-n4cc(CN(C)C)c(F)n4)n3)cc12 | 34 | 84 | 2.8 | –
4 | CNC(=O)c1nn(C)c2ccc(Nc3nccc(-n4cc(CN(C)C)c(OC)n4)n3)cc12 | 21 | 103 | 2.3 | –
5 | Cc1nnc(-c2nc(C)n3ccc(Nc4nccc(-c5cc(CN(C)C)n(C)n5)n4)cc23)o1 | 12 | 40 | 2.4 | Vd [4]: 8 L/kg; bioavailability [5]: 5%; solubility [6]: 97 µM (≈ 43.1 µg/mL); bioavailability [7]: 7%; CL free [8]: 955 mL/min/kg; clearance [9]: 255 mL/min/kg; pKa [10]: 7.2; CLH [11]: 44 µL/min; clearance [12]: 189 mL/min/kg; CL free [13]: 787 mL/min/kg; Papp A→B [14]: 6.5 ×10⁻⁶ cm/s; CLH [15]: 1.9 µL/min; Vd [16]: 11 L/kg
6 | CNC(=O)c1nn(C)c2ccc(Nc3nccc(-c4cc(CN(C)C)n(C)n4)n3)cc12 | 51 | 93 | 2.2 | pKa [10]: 7.3
7 | Cc1nnc(-c2nn(C)c3ccc(Nc4nccc(-c5cc(CN(C)C)n(C)n5)n4)cc23)o1 | 14 | – | 2.6 | –
8 | CNC(=O)c1nn(C)c2c(C)cc(Nc3nccc(-c4cc(CN(C)C)n(C)n4)n3)cc12 | 64 | 106 | 2.6 | –

Second part, led by results:

Row | CLH [1] [µL/min] | microsomal CLint [2] [µL/min/mg] | logD [3] | Compound | further results
9 | 34 | 9 | 1.4 | CNC(=O)c1ncn2ccc(Nc3nccc(-n4cc(CN(C)C)cn4)n3)cc12 | –
10 | 49 | 32 | 2.3 | CNC(=O)c1nn(C)c2c(C)cc(Nc3nccc(-n4cc(CN(C)C)cn4)n3)cc12 | –
11 | 19 | 78 | 1.9 | CNC(=O)c1nn(C)c2ccc(Nc3nccc(-n4cc(CN5CC(O)C5)c(C)n4)n3)cc12 | pKa [10]: 8.6
12 | 17 | 110 | 2 | CNC(=O)c1nc(C)n2ccc(Nc3nccc(-n4cc([C@@H]5C[C@H](O)CN5C)cn4)n3)cc12 | pKa [10]: 7.9
13 | 31 | 52 | 1.8 | CNC(=O)c1nn(C)c2ccc(Nc3nccc(-n4cc(CN(C)C)cn4)n3)cc12 | bioavailability [5]: 60%; solubility [6]: 909 µM (≈ 369 µg/mL); clearance [12]: 8 mL/min/kg; CL free [13]: 250 mL/min/kg; CLH [15]: 21 µL/min; Vd [16]: 1.1 L/kg
14 | 31 | 278 | – | CNC(=O)c1nc(C)n2ccc(Nc3nccc(-n4cc([C@@H]5C[C@@H](F)CN5C)cn4)n3)cc12 | –
15 | 33 | 43 | 1.7 | CN(C)Cc1cnn(-c2ccnc(Nc3ccc4c(c3)c(C(=O)N(C)C)nn4C)n2)c1 | –
